# Data as given in patent US20200031848A1, “AR-V7 INHIBITORS” (Hoffmann-La Roche Inc., priority 2016, published 2020).
# Columns and labels:
# [1] = test system: PSA levels secreted into the media; experiment: Prostate-specific antigen (PSA) assay; assay type: cell-based; conditions: Homo sapiens, 72 h; in parallel to the eGFP assay, same plates, 3 days
# Description: (§1) 1. Cell Culture: LNCaP and PC3 human prostate cancer cells were obtained from American Type Culture Collection (ATCC, Manassas, Va.) and grown in RPMI 1640 medium supplemented with 5% fetal bovine serum (FBS) (Invitrogen). The LNCaP eGFP cell line was stably transfected with an androgen-responsive probasin-derived promoter fused to an eGFP reporter (LN-ARR2PB-eGFP) using a lentiviral approach, and were grown in phenol-red-free RPMI 1640 supplemented with 5% CSS. In-house developed MDV3100-resistant LNCaP cells were cultured in RPMI 1640 supplemented with 5% FBS and 10 μM MDV3100. All cells were maintained at 37° C. in 5% CO2.
# 3. Prostate-specific antigen (PSA) assay: The evaluation of PSA levels secreted into the media was performed in parallel to the eGFP assay using the same plates. After cells were incubated for 3 days, 150 μl of the media was taken from each well, and added to 150 μl of PBS. PSA levels were then evaluated using Cobas e 411 analyzer instrument (Roche Diagnostics) according to the manufacturer's instructions.
# [2] = target: T1, AR transcriptional activity (Homo sapiens, UniProt P10275, T878A); experiment: eGFP cellular AR transcription assay; assay type: cell-based; conditions: for inhibition at 1 µM: read-out: eGFP % inhib. at 1 μM
# T1 construct: The LNCaP eGFP cell line was stably transfected with an androgen-responsive probasin-derived promoter fused to an eGFP reporter; endogenous in cells; host or cells: LNCaP eGFP (LN-ARR2PB-eGFP) human prostate cancer cells
# T1 sequence (P10275 1-920 T878A): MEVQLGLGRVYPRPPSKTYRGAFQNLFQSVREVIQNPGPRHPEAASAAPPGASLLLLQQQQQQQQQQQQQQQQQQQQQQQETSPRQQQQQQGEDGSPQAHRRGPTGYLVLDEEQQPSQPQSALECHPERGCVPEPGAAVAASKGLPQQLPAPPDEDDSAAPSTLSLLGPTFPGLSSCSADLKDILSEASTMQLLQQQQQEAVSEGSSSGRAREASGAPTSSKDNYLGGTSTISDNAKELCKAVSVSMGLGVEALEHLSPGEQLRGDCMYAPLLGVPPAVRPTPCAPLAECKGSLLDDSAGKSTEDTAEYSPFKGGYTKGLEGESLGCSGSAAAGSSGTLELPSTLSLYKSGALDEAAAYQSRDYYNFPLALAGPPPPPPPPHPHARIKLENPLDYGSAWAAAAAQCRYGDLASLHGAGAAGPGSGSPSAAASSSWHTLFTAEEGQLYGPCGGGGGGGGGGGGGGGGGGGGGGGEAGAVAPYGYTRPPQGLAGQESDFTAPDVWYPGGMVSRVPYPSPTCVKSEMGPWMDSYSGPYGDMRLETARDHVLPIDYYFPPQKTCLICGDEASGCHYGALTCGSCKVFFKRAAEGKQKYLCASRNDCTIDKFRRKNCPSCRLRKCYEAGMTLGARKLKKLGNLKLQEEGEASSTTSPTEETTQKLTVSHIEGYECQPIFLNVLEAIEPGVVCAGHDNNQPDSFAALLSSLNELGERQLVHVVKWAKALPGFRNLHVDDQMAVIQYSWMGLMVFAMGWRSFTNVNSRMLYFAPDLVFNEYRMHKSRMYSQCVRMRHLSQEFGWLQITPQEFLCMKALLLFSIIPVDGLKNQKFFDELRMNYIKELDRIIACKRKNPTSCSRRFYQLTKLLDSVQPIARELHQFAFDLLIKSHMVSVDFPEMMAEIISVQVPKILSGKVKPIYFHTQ
# From the text: The DNA-binding domain is an attractive target for inhibition of AR dimerization and/or DNA binding. In silico computational drug discovery methods were used to conduct a virtual screen of >3 million purchasable lead-like compounds from the ZINC database (Irwin, J. et al.^11) to identify potential DBD binders. The in silico methods included large-scale docking, in-site rescoring and consensus voting procedures. It will be understood by a person of skill that COOH and NR2 may include the corresponding ions, for example carboxylate ions and ammonium ions, respectively. Alternatively, where the ions are shown, a person of skill in the art will appreciate that the counter ion may also be present. Furthermore, it will be appreciated by a person of skill that other moieties may include the corresponding ions, and where the ions are shown, a person of skill in the art will appreciate that the counter ion may also be present. […] Where the % inhibition, eGFP IC50 or the PSA IC50 has no value given, this may be because no measurement was taken or the value was not calculated, in the case of the % inhibition. In vitro identification of AR inhibitors targeting AR DBD The selected compounds were assessed with a non-destructive eGFP assay that quantifies levels of AR transcriptional activity, were identified (table below).
# as §1
# 2. eGFP cellular AR transcription assay: The AR transcriptional activity was assayed as previously described (Tavassoli, P., et al.^12).
# in vitro = conditions: human, microsomes; for microsomal CLint at 2 μM: pH 7.4
# Description: Microsomal incubations were carried out in 96-well plates in 5 aliquots of 40 μL each (one for each time point). […] Control incubations were performed replacing the NADPH-cofactor system with PBS. […] Incubations were performed in duplicates. Five time points over 40 minutes had been analyzed. The reactions were stopped by adding 12 volumes of 90% acetonitrile-water to incubation aliquots, followed by protein sedimentation by centrifuging at 5500 rpm for 5 minutes. Supernatants were analyzed using the HPLC system coupled with tandem mass spectrometer. The elimination constant (kel), half-life (t1/2) and intrinsic clearance (Clint) were determined in plot of […] versus time, using linear regression analysis: […]
SMILES,microsomal CLint at 2 μM (in vitro),metabolic stability in human hepatic microsomal test system (in words) (in vitro),inhibition at 1 µM [2],eGFP IC50 ([2]; LNCaP eGFP cell line),IC50 [1],IC50 ([2]; LNCaP eGFP cell line)
"CC1(C)CN(c2nc(-n3cc(Br)nc3Br)cs2)CCO1 [Example 1, 4-[4-(2,4-dibromoimidazol-1-yl)thiazol-2-yl]-2,2-dimethyl-morpholine]",,,,,95 nM,117 nM
"Brc1cn(-c2csc(N3[C@@H]4CCC[C@H]3COC4)n2)c(Br)n1 [Example 2, (1S,5R)-9-[4-(2,4-dibromoimidazol-1-yl)thiazol-2-yl]-3-oxa-9-azabicyclo[3.3.1]nonane]",,,,,74 nM,135 nM
"Brc1ncn(-c2csc(N3C[C@H]4CC[C@@H](C3)O4)n2)c1Br [Example 3, (1R,5S)-3-[4-(4,5-dibromoimidazol-1-yl)thiazol-2-yl]-8-oxa-3-azabicyclo[3.2.1]octane]",,,,,1060 nM,182 nM
"Brc1ncn(-c2csc(N3[C@@H]4CCC[C@H]3COC4)n2)c1Br [Example 4, (1S,5R)-9-[4-(4,5-dibromoimidazol-1-yl)thiazol-2-yl]-3-oxa-9-azabicyclo[3.3.1]nonane]",,,,,6 nM,196 nM
"Clc1ncn(-c2csc(N3[C@@H]4CCC[C@H]3COC4)n2)c1Br [Example 5, (1R,5S)-9-[4-(5-bromo-4-chloro-imidazol-1-yl)thiazol-2-yl]-3-oxa-9-azabicyclo[3.3.1]nonane]",,,,,181 nM,268 nM
"Clc1ncn(-c2csc(N3[C@@H]4CC[C@H]3COC4)n2)c1Br [Example 6, (1R,5S)-8-[4-(5-bromo-4-chloro-imidazol-1-yl)thiazol-2-yl]-3-oxa-8-azabicyclo[3.2.1]octane]",,,,,377 nM,404 nM
"Brc1ncn(-c2csc(N3[C@@H]4CC[C@H]3COC4)n2)c1Br [Example 7, (1R,5S)-8-[4-(4,5-dibromoimidazol-1-yl)thiazol-2-yl]-3-oxa-8-azabicyclo[3.2.1]octane]",,,,,385 nM,458 nM
"Clc1c(Br)ncn1-c1csc(N2[C@@H]3CC[C@H]2COC3)n1 [Example 8, (1R,5S)-8-[4-(4-bromo-5-chloro-imidazol-1-yl)thiazol-2-yl]-3-oxa-8-azabicyclo[3.2.1]octane]",,,,,717 nM,717 nM
"COc1nc(Br)cn1-c1csc(N2[C@@H]3CC[C@H]2COC3)n1 [Example 23, (1S,5R)-8-[4-(4-bromo-2-methoxy-imidazol-1-yl)thiazol-2-yl]-3-oxa-8-azabicyclo[3.2.1]octane]",22 µL/min/mg,,,,,270 nM
"Clc1c(Br)ncn1-c1csc(N2C[C@H]3CC[C@@H](C2)O3)n1 [Example 24, (1R,5S)-3-[4-(4-bromo-5-chloro-imidazol-1-yl)thiazol-2-yl]-8-oxa-3-azabicyclo[3.2.1]octane]",13 µL/min/mg,high metabolic stability,,,,700 nM
"OCc1nc(Br)c(Br)n1-c1csc(N2[C@@H]3CC[C@H]2COC3)n1 [Example 36, [4,5-dibromo-1-[2-[(1R,5S)-3-oxa-8-azabicyclo[3.2.1]octan-8-yl]thiazol-4-yl]imidazol-2-yl]methanol]",10 µL/min/mg,high metabolic stability,,,,2990 nM
"CCC1(CC)CN(c2nc(-n3cc(Br)nc3Br)cs2)CCO1 [Example 37, 4-[4-(2,4-dibromoimidazol-1-yl)thiazol-2-yl]-2,2-diethyl-morpholine]",129 µL/min/mg,,33%,,,
"FC(F)(F)C1CN(c2nc(-n3cc(Br)nc3Br)cs2)CCO1 (centres unmarked) [Example 38, 4-[4-(2,4-dibromoimidazol-1-yl)thiazol-2-yl]-2-(trifluoromethyl)morpholine]",44 µL/min/mg,,,,,1950 nM
"Brc1cn(-c2csc(N3CCOC4(COC4)C3)n2)c(Br)n1 [Example 39, 8-[4-(2,4-dibromoimidazol-1-yl)thiazol-2-yl]-2,5-dioxa-8-azaspiro[3.5]nonane]",18 µL/min/mg,,34%,,,

# Now from value to molecule, other results behind:
microsomal CLint at 2 μM (in vitro),metabolic stability in human hepatic microsomal test system (in words) (in vitro),inhibition at 1 µM [2],eGFP IC50 ([2]; LNCaP eGFP cell line),SMILES,IC50 [1],IC50 ([2]; LNCaP eGFP cell line)
72 µL/min/mg,,44%,,"Cc1c(Br)ncn1-c1csc(N2CCOCC2)n1 [Example 53, 4-[4-(4-bromo-5-methyl-imidazol-1-yl)thiazol-2-yl]morpholine]",,
224 µL/min/mg,,28%,,"Cc1ncn(-c2csc(N3CCOCC3)n2)c1Br [Example 54, 4-[4-(5-bromo-4-methyl-imidazol-1-yl)thiazol-2-yl]morpholine]",,
10 µL/min/mg,high metabolic stability,17%,,"c1cn(-c2csc(N3CCOCC3)n2)cn1 [Example 55, 4-(4-imidazol-1-ylthiazol-2-yl)morpholine]",,
33 µL/min/mg,,12%,,"CCOC(=O)c1nc(Br)c(Br)n1-c1csc(N2CCOCC2)n1 [Example 56, ethyl 4,5-dibromo-1-(2-morpholinothiazol-4-yl)imidazole-2-carboxylate]",,
10 µL/min/mg,high metabolic stability,,,"OCc1nc(Br)c(Br)n1-c1csc(N2CCOCC2)n1 [Example 57, [4,5-dibromo-1-(2-morpholinothiazol-4-yl)imidazol-2-yl]methanol]",,6450 nM
23 µL/min/mg,,2%,,"N#Cc1cn(-c2csc(N3CCOCC3)n2)cn1 [Example 58, 1-(2-morpholinothiazol-4-yl)imidazole-4-carbonitrile]",,
42 µL/min/mg,,35%,,"Brc1nccn1-c1csc(N2CCOCC2)n1 [Example 59, 4-[4-(2-bromoimidazol-1-yl)thiazol-2-yl]morpholine]",,
44 µL/min/mg,,3%,,"Cc1nc(-c2ccccc2)cn1-c1csc(N2CCOCC2)n1 [Example 60, 4-[4-(2-methyl-4-phenyl-imidazol-1-yl)thiazol-2-yl]morpholine]",,
15 µL/min/mg,high metabolic stability,31%,,"OCc1c(Br)ncn1-c1csc(N2CCOCC2)n1 [Example 61, [5-bromo-3-(2-morpholinothiazol-4-yl)imidazol-4-yl]methanol]",,
19 µL/min/mg,,,inact.,"OCc1ncn(-c2csc(N3CCOCC3)n2)c1Br [Example 62, [5-bromo-1-(2-morpholinothiazol-4-yl)imidazol-4-yl]methanol]",,
